The target in experiment [1] is T1, TRPC5 and TRPC6 channels in AT1R podocytes (Rattus norvegicus, UniProt Q8VD38).
T1 construct: endogenous in cells; host or cells: immortalized rat podocytes stably expressing the AngII Type 1 Receptor (AT1R podocytes)
T1 sequence (Q8VD38 1-974): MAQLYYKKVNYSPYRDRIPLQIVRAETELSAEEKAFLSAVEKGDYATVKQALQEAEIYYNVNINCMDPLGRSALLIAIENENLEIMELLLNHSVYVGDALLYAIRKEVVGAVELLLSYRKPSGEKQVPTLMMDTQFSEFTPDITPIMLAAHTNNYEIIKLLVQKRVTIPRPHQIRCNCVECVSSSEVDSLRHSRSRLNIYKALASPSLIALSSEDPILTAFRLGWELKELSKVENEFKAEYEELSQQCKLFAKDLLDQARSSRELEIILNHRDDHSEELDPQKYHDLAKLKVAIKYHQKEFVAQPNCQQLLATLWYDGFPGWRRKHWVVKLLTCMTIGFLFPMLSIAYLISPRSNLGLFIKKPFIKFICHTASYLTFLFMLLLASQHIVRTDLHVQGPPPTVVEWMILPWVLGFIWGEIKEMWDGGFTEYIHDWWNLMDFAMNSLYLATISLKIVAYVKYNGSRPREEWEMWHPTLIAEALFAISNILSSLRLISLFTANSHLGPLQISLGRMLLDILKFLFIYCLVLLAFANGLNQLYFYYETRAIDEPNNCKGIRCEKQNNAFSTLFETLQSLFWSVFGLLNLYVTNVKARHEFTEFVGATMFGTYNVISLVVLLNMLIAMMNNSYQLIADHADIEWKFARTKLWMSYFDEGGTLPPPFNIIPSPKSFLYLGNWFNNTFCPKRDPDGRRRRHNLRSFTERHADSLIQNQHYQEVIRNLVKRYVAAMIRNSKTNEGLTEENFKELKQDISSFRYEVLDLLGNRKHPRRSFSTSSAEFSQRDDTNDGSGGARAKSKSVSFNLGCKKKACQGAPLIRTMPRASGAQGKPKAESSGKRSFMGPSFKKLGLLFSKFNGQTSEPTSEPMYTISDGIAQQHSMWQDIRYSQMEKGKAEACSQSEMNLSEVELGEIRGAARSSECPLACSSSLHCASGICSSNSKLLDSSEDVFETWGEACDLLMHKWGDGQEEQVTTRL
In words: Outside-out single channel recordings of TRPC5-like and TRPC6-like conductances. Format: cell-based. Particulars: La3+ 100 μM; after AngII 500 nM; Vstep +100 mV. As to the method:
(§1) Electrophysiology. Patch-clamp electrophysiology (Axopatch 200B amplifier, Axon Instruments, CA) was performed in the whole-cell configuration. Briefly, fully differentiated podocytes were plated on glass coverslips at low density and placed in the recording chamber. The patch pipettes with resistances of 3-4 MΩ were pulled from borosilicate glass with a P-97 puller (Sutter Instrument) and filled with a solution containing (in mM): 135 CH3SO3Cs, 10 CsCl, 3 MgATP, 0.2 NaGTP, 0.2 EGTA, 0.13 CaCl2, and 10 HEPES, pH 7.3 with CsOH. The bath solution contained (in mM): 135 CH3SO3Na, 5 CsCl, 2 CaCl2, 1 MgCl2, 10 HEPES, and 10 Glucose, pH 7.4 with NaOH. Angiotensin (500 nM) was applied to the bath solution. Whole-cell currents were recorded from −100 mV to 100 mV voltage ramps over 150 ms and a holding potential of zero. For single channel recordings in the outside-out configuration, we utilized a voltage step protocol from −100 mV to +100 mV delivered at 20 mV intervals and a holding potential of −60 mV. Average pipette resistance filled with pipette solution was 5-10 MΩ. Data were sampled at 10 kHz and filtered at 5 kHz. […] Ensemble averages were expressed as open channel probabilities (average current divided by unitary current amplitude and # of channels in each patch) and plotted as histograms. All data were acquired at room temperature and analyzed using pClamp 10 (Axon Instruments, CA).

In experiment [2] the target is T2, TRPC5 and TRPC6 channels in AT1R podocytes (Rattus norvegicus, UniProt Q99N78).
T2 construct: endogenous in cells; host or cells: immortalized rat podocytes stably expressing the AngII Type 1 Receptor (AT1R podocytes)
T2 sequence (Q99N78 1-930): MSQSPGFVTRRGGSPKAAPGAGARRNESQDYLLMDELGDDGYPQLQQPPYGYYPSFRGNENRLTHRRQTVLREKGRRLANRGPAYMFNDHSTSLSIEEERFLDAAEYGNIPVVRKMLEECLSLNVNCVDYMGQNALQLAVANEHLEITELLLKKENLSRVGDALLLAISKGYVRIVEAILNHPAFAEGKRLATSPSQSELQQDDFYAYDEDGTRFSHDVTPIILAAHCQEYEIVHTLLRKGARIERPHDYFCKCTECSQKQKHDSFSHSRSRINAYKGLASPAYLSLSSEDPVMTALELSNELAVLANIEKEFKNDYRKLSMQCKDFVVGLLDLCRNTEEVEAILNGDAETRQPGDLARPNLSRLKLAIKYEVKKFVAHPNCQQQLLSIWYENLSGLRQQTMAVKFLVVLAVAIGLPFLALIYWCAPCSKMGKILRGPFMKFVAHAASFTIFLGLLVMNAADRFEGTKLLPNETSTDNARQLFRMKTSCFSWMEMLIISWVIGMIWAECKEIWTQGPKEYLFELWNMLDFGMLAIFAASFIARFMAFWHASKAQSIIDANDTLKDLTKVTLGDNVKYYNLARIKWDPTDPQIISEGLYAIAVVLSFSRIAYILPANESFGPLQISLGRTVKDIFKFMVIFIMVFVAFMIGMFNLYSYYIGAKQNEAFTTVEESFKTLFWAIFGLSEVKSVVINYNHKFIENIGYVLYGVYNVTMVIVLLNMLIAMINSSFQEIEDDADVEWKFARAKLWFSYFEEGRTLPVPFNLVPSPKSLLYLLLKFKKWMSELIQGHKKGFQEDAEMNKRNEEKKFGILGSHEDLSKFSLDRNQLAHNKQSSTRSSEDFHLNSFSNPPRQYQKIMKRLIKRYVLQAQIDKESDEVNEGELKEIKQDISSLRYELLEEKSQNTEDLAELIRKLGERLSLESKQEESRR
Described as above. Format: cell-based. Particulars: La3+ 100 μM; in words. On the procedure: as §1

In experiment [3] the test system is AT1R podocytes. In words: Fluo-3 calcium imaging of AngII-evoked Ca2+ transients. Type of experiment: cell-based, rat. Particulars: Losartan 200 nM; AngII 500 nM. On the procedure:
(§2) Podocyte cell culture. Wild-type mouse podocytes (passages 7 to 18) derived from the Immortomouse stably expressing the temperature-sensitive SV40 T-antigen were generously provided by Peter Mundel (University of Miami School of Medicine, FL) and cultured as previously described (Asanuma et al., Nat Cell Biol 8, 485-491, 2006). Briefly, podocytes were plated on collagen-coated cell culture dishes (100 μg/ml Type I Collagen, Gibco Invitrogen) and maintained at 33° C. in a humidified atmosphere of 5% CO2 in RPMI1640 medium supplemented with 10% heat-inactivated FBS, 100 U/ml Penicillin, 100 μg/ml streptomycin, and 100 U/ml Interferon-γ (IFN-γ). Under these permissive culture conditions, the podocytes remain in the undifferentiated, replication-competent state. Podocytes were thermoshifted to 38° C. and maintained in IFN-γ-free culture medium to induce growth arrest and differentiation. Podocyte-specific markers for differentiation are expressed within 7 days of culture in these non-permissive conditions. […]
Calcium imaging. […] Fluorescence intensity was normalized to maximal fluorescence obtained at the end of each experiment by the application of 100 μM Ionomycin, based on the formula F=(Fmax (angiotensin)−Fmin)/(Fmax (ionomycin)−Fmin). Measurements were analyzed using Zeiss Pascal Software and Microsoft Xcel, and images were prepared in Adobe Photoshop and NIH Image J.

Experiment [4] deals with AT1R podocytes. In words: Stress fiber (phalloidin) and focal adhesion (paxillin) quantification after AngII, AT1R podocytes. Format: cell-based, rat. The conditions noted are these: in words. On the procedure: as §2
(§3) Immunocytochemistry, wound healing assays, and confocal imaging. […] For double immunostaining, podocytes were incubated with antibodies to Paxillin (Chemicon International) and detected with Alexa-488-conjugated secondary antibodies (Molecular Probes). […]

Experiment [5] concerns podocytes. In words: Stress fiber quantification in podocytes, TRPC/Rho GTPase coupling (FIG. 4E). Type of experiment: cell-based. On the procedure: Lentivirus construction and shRNA-mediated gene silencing. Podocytes were exposed to lentivirus encoding validated shRNA sequences (Open Biosystems) for 24 hours in cell culture medium supplemented with 4 μg/ml polybrene (Chemicon International). For all experiments, parallel infections with the enhanced GFP virus in the VVPW vector, scrambled shRNA, or polybrene alone were used as control. All experiments were performed at least 48 hours post-infection of podocytes that were thermoshifted 5-7 days prior to the assay. Lentiviral particles pseudotyped with the vesicular stomatitis virus glycoprotein (VSV-G) were constructed according to the manufacturer's protocol. Briefly, low-passage HEK293T cells were transfected with the pLKO.1 plasmid encoding the shRNA, the packaging plasmid pMDG.2 ΔR8.91, and the envelope plasmid pCMV-VSV-G at a ratio of 10:10:1 using the Minis Trans-IT LT-1 transfection reagent. Enhanced GFP encoded in the pLVX vector was used to assess transfection efficiency. The medium was replaced with the virus harvest media 18 hours post-transfection, and viral particles were collected twice at 24 hour intervals thereafter. […]
as §3

For experiment [6], the system named is AT1R podocytes. In words: Whole-cell patch-clamp recording of AngII-evoked TRPC-like current. Format: cell-based, rat. The conditions noted are these: AngII 500 nM. On the procedure: as §1
(In patch-clamp work, channel activity is measured electrically.)

“Also recorded” adds a separate entry of the source.

With `[La+3]` [La^3+, Lanthanum], in experiment [1], the “single channel conductance [4] unmasked” value worked out at 33 pS. For the same molecule, the “effect on AngII-evoked single channel conductances [2] and [3] / single channel activity” value in experiment [2] is on record as “abolished; also recorded: suppressed”.

Turning to `CCCCc1nc(Cl)c(CO)n1Cc1ccc(-c2ccccc2-c2nn[nH]n2)cc1` [Losartan], the “decrease of the amplitude of the AngII-evoked Ca2+ transient” value in experiment [3] is “more than 70%”. Moreover, the stress fiber formation result in experiment [4] (Losartan 200 nM prior to AngII exposure) is “induced robust stress fiber formation”. In addition, the “focal adhesions (Paxillin immunostaining)” value in experiment [4] (Losartan-treated vs AngII-treated controls) is given as “increase in focal adhesions”. Besides, in experiment [5] (cells pre-treated with Losartan, Scr shRNA controls 16±1), the stress fibers is listed as 25±1.

As for `C[C@@H](N)[C@H]1CC[C@H](C(=O)Nc2ccncc2)CC1` [Y27632], the stress fibers in experiment [5] (Y27632 10 μM in TRPC5 depleted cells (22±3 without)) is reported as 6±1.

As for “Angiotensin II (DRVYIHPF; Angiotensin-2; UniProt P01019 25-32, looked up) [AngII]”, the normalized peak current in experiment [6] (at +100 mV) came out at 20±7 pA/pF; in experiment [6] (at -100 mV), 10±4 pA/pF.

The record behind these values is patent publication US20110135574A1, “METHODS OF TREATING KIDNEY DISEASE” (priority 2009, published 2011).
